Measurements from patent US20260209299A1, “TROP2 IMMUNOGENIC PEPTIDE” (ASTON SCIENCE INC., priority 2023, published 2026).

Experiments:
[1] = tested on: Type 1 helper T cells (CD4^+IFN-γ^+); test: FACS analysis of Type 1 helper T cells (CD4+IFN-γ+) after peptide treatment of PBMCs; format: cell-based, human; conditions: for Combined Score: (A value×0.8)+(B value×0.2); for IFN-gamma − IL-10: A value: difference between distribution of IFN-γ secreting T cells and distribution of IL-10 secretion; for IFN-gamma − Treg: B value: difference between distribution of IFN-γ secreting T cells and Treg distribution; for IFN-gamma (Th1, CD4+): FACS, healthy human PBMCs, peptide 10 μg/ml with 1 μg/ml anti-CD3, 72 hours, then PMA/ionomycin + GolgiPlug 6 hours; for stimulation of Type 1 helper T cells (CD4+IFN-γ+), flow cytometry plot: FIG. 1, peptide together with PMA, ionomycin; for effect of stimulating Type 1 helper T cells while not stimulating Type 2 helper T cells and regulatory T cells: overall FACS conclusion, Table 2
Experimental: (§1) To this end, the degree of stimulation of Type 1 helper T cells (CD4^+IFN-γ^+), stimulation of interleukin 10 (IL-10)-producing regulatory T cells (CD4^+IL-10+), stimulation of regulatory T cells (CD4^+CD25^+Foxp3^+), and stimulation of Type 2 helper T cells secreting IL-4 and Th17 cells secreting IL-17 according to the treatment with the immunogenic peptide were confirmed.
(§2) Healthy human peripheral blood mononuclear cells (PBMCs; 2,000,000 cells per well) were cultured in 96× round bottom well plates in the presence or absence of anti-CD3 (clone HIT) and peptide at the indicated ratios.
(§3) Specifically, the peptide synthesized in Example 1 at a concentration of 10 μg/ml was cultured with 1 μg/ml of anti-CD3 in a 37° C. incubator for 72 hours. The culture medium consisted of complete RPMI1640 medium supplemented with 10% fetal bovine serum, 10 mM HEPES, 50 µM B-ME, and penicillin/streptomycin/L-glutamine. After 72 hours of culture, the cells were stimulated with Phorbol 12-myristate 13-acetate (50 ng/ml) and Ionomycine (1 μg/mL), which are intracellular cytokine secretion stimulators. To prevent cytokine secretion into the culture medium, the cells were co-stimulated with GolgiPlug, a protein transport inhibitor, at a concentration of 1/100 diluted in PBS for 6 hours in a 37° C. incubator. After stimulation, the cells were washed twice with PBS.
(§4) To determine only the viable cells among the PBMC cells, the cells were labeled with eFlor780-conjugated Fixable Viability dye diluted 1:100 in PBS for 15 minutes at 4° C., and washed twice with stain buffer after 15 minutes. After washing, the cells were surface-labeled with BV421-conjugated anti-CD4 (clone RPA-T4) and PE-Cy5-conjugated anti-CD25 (clone 2A3) antibodies diluted 1:100 in stain buffer for 30 minutes at 4° C. Then, the cells labeled with cell surface proteins were washed twice with stain buffer. Next, to detect cytokines secreted intracellularly, the cells were fixed for 1 hour at room temperature with fixation buffer and then washed with permeabilization buffer. To enable antibodies to detect intracellular cytokines, the fixed cells were labeled overnight at 4° C. with PerCP-Cy5. 5-conjugated anti-IFN-g (clone 4S. B3), Brilliant Violet 510-conjugated anti-IL-4 (clone MP4-25D2), anti-Foxp3 (clone PCH101), and PE-conjugated anti-IL-10 diluted 1:100 in permeabilization (clone JES3-19F1) buffer. Then, the cytokine-labeled cells were washed twice with stain buffer, and cell flow assays were performed using an Attune NxT Acoustic Focusing Cytometer (Invitrogen). Data analysis was performed using Flowjo v10.7.1 software (FlowJo).
1) Calculate the difference between the distribution of IFN-γ secreting T cells and the distribution of IL-10 secretion (A value),
2) Calculate the difference between the distribution of IFN-γ secreting T cells and the Treg distribution (B value),
3) Use the formula “(A value×0.8)+(B value×0.2)” as the final combined scoring, and
(§5) The activity results of the immunogenic peptide candidate group were confirmed by first isolating CD4^+ T cells (helper T cells) from PBMCs, and then classifying the isolated cells into Type 1 helper T cells (CD4^+IFN-γ^+), Type 2 helper T cells (CD4^+IL-4^+), regulatory T cells (CD4^+CD25^+Foxp3^+), and interleukin-10 (IL-10)-producing regulatory T cells (CD4^+IL-10^+) and analyzing the results.

[2] = tested on: interleukin 10 (IL-10)-producing regulatory T cells (CD4^+IL-10^+); test: FACS analysis of IL-10-producing regulatory T cells (CD4+IL-10+) after peptide treatment of PBMCs; format: cell-based; conditions: healthy human PBMCs, peptide 10 μg/ml with 1 μg/ml anti-CD3, 72 hours, then PMA/ionomycin + GolgiPlug 6 hours
Experimental: as §2, §3, §4

[3] = tested on: regulatory T cells (CD4^+CD25^+Foxp3^+); test: FACS analysis of regulatory T cells (CD4+CD25+Foxp3+) after peptide treatment of PBMCs; format: cell-based; conditions: healthy human PBMCs, peptide 10 μg/ml with 1 μg/ml anti-CD3, 72 hours, then PMA/ionomycin + GolgiPlug 6 hours
Experimental: as §1, §2, §3, §4, §5

MDA-MB-231 cell line [4] = test: Antitumor effect of cancer vaccine alone in Xenograft cancer mouse model; format: in vivo, athymic Balb/C nude mice; conditions: peptide + CFA/IFA + mGM-CSF, 100 μg per mouse subcutaneously on days 1, 8, 15, 22; vs control group G1
Experimental: (§6) Five-week-old athymic Balb/C nude mice weighing 16 to 18 g were purchased and acclimated for at least 3 to 7 days.
(§7) The MDA-MB-231 cell line, a human-derived triple-negative breast cancer cell line, was suspended at 5×10^6 cells per individual in 200 μl of a 1:1 mixture of PBS and Matrigel and injected subcutaneously into the axillary region between the right scapular area and the thoracic wall of the mouse.
On Day 16 after MDA-MB-231 cell transplantation, 32 mice (mean tumor size 143.8±2.9 mm^3) with tumor sizes reaching approximately 150 mm^3 were selected and assigned to each group of 8 mice.
Each group was divided into Group 1 (G1): PBS+CFA/IFA, Group 2 (G2): SEQ ID NO: 3 peptide+CFA/IFA+mGM-CSF, Group 3 (G3): SEQ ID NO: 10 peptide+CFA/IFA+mGM-CSF, and Group 4 (G4): SEQ ID NO: 17 peptide+CFA/IFA+mGM-CSF.
(§8) Next, the immunogenic peptide (TROP2 peptide) according to the present invention was administered subcutaneously at a dose of 100 μg per mouse on days 1, 8, 15, and 22 (the 16th day after cell transplantation was designated as Day 0, and the following day was designated as Day 1) for a total of 4 times, and the tumor size for each individual was calculated 11 times (0, 1, 4, 7, 11, 14, 18, 21, 25, 28, and 32) from Day 0 to Day 32. Then, the tumor growth change rate was calculated by comparison with the control group of each Test Group.

[5] = tested on: interferon-gamma (IFN-γ)-forming T cells; test: ELISpot assay of IFN-γ-forming T cells using PBMC; format: cell-based; conditions: FIG. 5; human PBMCs, peptide 10 μg/mL, 70-72 hours
Experimental: The frequency of interferon-gamma (IFN-γ, 3420-4HPW-10, MabTech, Stockholm, Sweden) and interleukin-10 (IL-10, 3430-4HPW-10, MabTech)-forming T cells was assessed using the ELISpot assay.
Specifically, the pre-coated plates were washed four times with 200 μL/well of PBS. Human PBMCs (PCS-800-011, ATCC, Virginia, USA) 2×10^6/mL were dispensed onto the coated plate, and TROP2 peptides were dispensed at 10 μg/mL each and reacted with the PBMCs. The plate reacted under a total volume of 200 μL/well was incubated at 5% CO2, 37° C. for 70-72 hours. Then, the plate was washed 5 times with 200 μL of PBS, and 200 μL of diluted detection antibody (IFN-γ:7-B6-1-biotin; IL-10:12G8-biotin) was added to the wells of the plate, and then reacted at room temperature for 2 hours. After the reaction, the plate was washed 5 times with 200 μL of PBS, and 1:1000 diluted streptavidin-HRP was added at 100 μL/well, followed by reaction at room temperature for 1 hour. Then, the resulting product was washed 5 times with 200 μL of PBS, 100 μL/well of TMB substrate solution was added and reacted at RT for up to 5-10 minutes, and then the spots were counted using the AID iSpot reader system (AID, Strassberg, Germany).

[6] = tested on: Type 2 helper T cells (CD4^+IL-4^+); test: FACS analysis of Type 2 helper T cells (CD4+IL-4+) after peptide treatment of PBMCs; format: cell-based, human; conditions: FIG. 2; peptide together with PMA, ionomycin
Experimental: as §1, §2, §3
as §4, with “(FlowJo). […]” for “(FlowJo).”

MDA-MB-231 cell line [7] = test: Antitumor effect of cancer vaccine and antibody-drug conjugate (ADC) in Xenograft cancer mouse model; format: in vivo, athymic Balb/C nude mice; conditions: peptide mix + CFA/IFA + mGM-CSF subcutaneously days 1, 8, 15, 22; Trodelvy 0.81 mg/kg intravenously Days 4 and 11
Experimental: as §6, §7, §8
In order to confirm the antitumor effect of the combination therapy of the immunogenic peptide discovered in the present invention and antibody-drug conjugate (ADC), the antitumor effect was analyzed for the following groups using the same experimental method as in Example 4. […]

Row | Substance | Combined Score [1] | IFN-gamma − IL-10 [1] [%] | IFN-gamma − Treg [1] [%] | IFN-gamma (Th1, CD4+) [1] [%] | IL-10 (Th2, CD4+) [2] [%] | Treg (CD25+/Foxp3) [3] [%] | TGI rate (%) at Day 32 (MDA-MB-231 cell line [4]) [%] | stimulation of Type 1 helper T cells (CD4+IFN-γ+), flow cytometry plot [1] | effect of stimulating Type 1 helper T cells while not stimulating Type 2 helper T cells and regulatory T cells [1] | number of cells secreting IFN-γ (ELISpot spots) [5] | stimulation of Type 2 helper T cells (CD4+IL-4+), flow cytometry plot [6] | TGI rate (%) at Day 32 (MDA-MB-231 cell line [7]) [%]
1 | AGLIAVIVVVVVALVAGMAVLVITNRRKSGKYKK [SEQ ID NO: 24] | 11.88 | 12.35 | 10.00 | 17.10 | 4.75 | 7.10 |  |  |  |  |  | 
2 | ELRONTSQKAAGDVD (ELRQNTSQKAAGDVD) [SEQ ID NO: 17] | 20.02 | 21.27 | 15.03 | 23.20 | 1.93 | 8.17 | 57.2 | stimulated Type 1 helper T cells (CD4^+IFN-γ^+) to a high degree | most excellent | dramatically increased the secretion of IFN-γ | hardly stimulated Type 2 helper T cells (CD4^+IL-4^+) | 
3 | EPLQVERTLIYYLDE [SEQ ID NO: 19] |  |  |  |  |  |  |  |  |  | dramatically increased the secretion of IFN-γ |  | 
4 | LVRPSEHALVDNDGL [SEQ ID NO: 10] | 17.84 | 18.97 | 13.34 | 21.00 | 2.03 | 7.66 | 38.5 | stimulated Type 1 helper T cells (CD4^+IFN-γ^+) to a high degree | most excellent | dramatically increased the secretion of IFN-γ | hardly stimulated Type 2 helper T cells (CD4^+IL-4^+) | 
5 | PKFSMKRLTAGLIAVIV [SEQ ID NO: 22] | 11.25 | 11.75 | 9.25 | 16.90 |  | 7.65 |  |  |  |  |  | 
6 | PLRLPLLLLVLAAVTGHTAAQD [SEQ ID NO: 3] | 20.36 | 21.66 | 15.16 | 24.00 | 2.34 | 8.84 | 52.4 | stimulated Type 1 helper T cells (CD4^+IFN-γ^+) to a high degree | most excellent | dramatically increased the secretion of IFN-γ | hardly stimulated Type 2 helper T cells (CD4^+IL-4^+) | 
7 | RERYRLHPKFVAAVH [SEQ ID NO: 15] | 12.27 | 12.87 | 9.87 | 17.80 | 4.93 | 7.93 |  |  |  |  |  | 
8 | RGEPLQVERTLIYYL [SEQ ID NO: 18] | 19.62 | 20.80 | 14.89 | 22.90 | 2.10 | 8.01 |  | stimulated Type 1 helper T cells (CD4^+IFN-γ^+) to a high degree | most excellent |  | hardly stimulated Type 2 helper T cells (CD4^+IL-4^+) | 
9 | SKCLLLKARMSAPKN [SEQ ID NO: 8] | 11.06 | 11.65 | 8.68 | 16.90 | 5.25 | 8.22 |  |  |  |  |  | 
10 | SLRCDELVRTHHILIDLRHRPTAGAFN [SEQ ID NO: 11] | 11.16 | 11.71 | 8.97 | 17.20 | 5.49 | 8.23 |  |  |  |  |  | 
11 | TLIYYLDEIPPKFSM [SEQ ID NO: 20] | 10.26 | 10.82 | 8.03 | 16.10 | 5.28 | 8.07 |  |  |  |  |  | 
12 | sacituzumab govitecan [Trodelvy] |  |  |  |  |  |  |  |  |  |  |  | 46.1
